Assay results taken from patent US9675564B2, “Composition based on ubidecarenone” (Asoltech Srl, priority 2011, dated 2017).
In brackets after ≈: the same amount, converted by molar mass.

Tests used:
[1] = Solubility in water at 37° C. (excess powder, CoQ10 passing into solution by UV or HPLC); assay type: physicochemical; conditions: thermodynamic from solid
Experimental: The solubility in water at 37° C. (physiological temperature) of the composition according to the present invention was compared with that of the compositions in the examples of comparison.
Verification is carried out after 1 hour and 24 hours (balanced) using the suitable analytical method (for example UV or HPLC spectrophotometry) of the maximum quantity of coenzyme Q10 that passes into the solution.

H9C2 cells = test: Absorption in cardiomyoblasts: intracell penetration and penetration of the mitochondrial membrane, CoQ10 quantified by HPLC; assay type: cell-based, rats; conditions: cultured cells after administration; FIG. 2
Experimental: Despite the large number of clinical studies on the effects of Coenzyme Q10 supplementation, there are very few experimental data concerning the content of coenzyme Q10 in mitochondria and the cell energy condition after supplementation. Probably, controversial results of clinical and in vitro studies are mainly due to the bio-availability of the form of coenzyme Q10 used.
For this analysis, T67 cells of human astrocytoma and H9C2 cells from rats, deriving from the heart, were cultured in a Dulbecco's modified Eagle medium (DMEM), supplemented with 10% of fetal bovine serum (FBS), 100 Ul/ml of penicillin, 100 μg/ml of streptomycin and 40 μg/ml of gentamicin, in an atmosphere of 5% CO2 at 37° C., with saturation humidity. The vitality of the cells and their number were measured using the exclusion method with Tripan blue (Lowry et al.). The mitochondria were isolated using known procedures (Chomyn, 1996). The cells treated were washed carefully with PBS before the extraction procedures. The extraction of the coenzyme Q10 from the isolated cells and mitochondria was performed as described by Takada et al. (Takada et al., 1984). The quantification of the coenzyme Q10 was done by means of HPLC analysis. […]

**Q.** Which solubility at 1 h ([1]; after 1 hour) does the source give for `COC1=C(OC)C(=O)C(C/C=C(\C)CC/C=C(\C)CC/C=C(\C)CC/C=C(\C)CC/C=C(\C)CC/C=C(\C)CC/C=C(\C)CC/C=C(\C)CC/C=C(\C)CCC=C(C)C)=C(C)C1=O` [CoQ10, ubidecarenone] here?
**A.** 1 µg/mL (≈ 1.16 µM)

**Q.** And the solubility at 24 h ([1]; after 24 hours (balanced))?
**A.** 4 µg/mL (≈ 4.63 µM)

**Q.** What about the “CoQ10 passing from the whole cells to the mitochondria” value (H9C2 cells) of the same compound?
**A.** 4%
